Test results taken from article PMC3584063, “Biochemical and Functional Studies on the Burkholderia cepacia Complex bceN Gene, Encoding a GDP-D-Mannose 4,6-Dehydratase” (PLoS ONE, 2013).

Key:
[1] = molecular target: T1, BceN (GDP-D-mannose 4,6-dehydratase) (Burkholderia cenocepacia, UniProt B4EFL2); experiment: 1H NMR enzyme kinetics with purified protein (substrate turnover and substrate inhibition), […]°C, pH […]; format: biochemical
T1 construct: gene gca; full-length, C-terminally 6×His-tagged BceN, tetramer

[2] = molecular target: 6×His-tagged BceN protein of Burkholderia cenocepacia J2315 (GDP-D-mannose 4,6-dehydratase) (Burkholderia cenocepacia J2315); experiment: native gel or EMSA; discontinuous native PAGE, 8% polyacrylamide, 200 mM Tris-Cl pH 8.8, 4°C, 100 V, 2 h; 6 µg purified 6×His-tagged BceN; aliquot with GMD activity; mass standards catalase, aldolase, BSA, ovalbumin

Compound	Ki [1] [mM]	stoichiometry N [2]
Nc1nc2c(ncn2[C@@H]2O[C@H](COP(=O)(O)OP(=O)(O)O[C@H]3O[C@H](CO)[C@@H](O)[C@H](O)[C@@H]3O)[C@@H](O)[C@H]2O)c(=O)[nH]1 [A, GDP-D-mannose]	2.91 ± 0.35	–
6×His-tagged BceN protein of Burkholderia cenocepacia J2315 (GDP-D-mannose 4,6-dehydratase) (enzyme)	–	4
